This is an account of results in patent publication US20250179033A1 (priority 2021, published 2025).

A word on the IC50: it is the concentration that inhibits the measured activity by half.

Where two headings read alike, the source gives them in different places. Some results are limits rather than exact numbers.

Common to all, as to assay type: cell-based
The test system of data set [1] is HIV-1 IIIB A17 variant (Y181C/K103N). The data set can be described thus: HIV inhibition assay in TZM-bl cells, A17 variant. As to conditions: Human immunodeficiency virus 1, IIIB, TZM-bl, read-out: IC50 (TZM, A17), Table 3, TZM-bl, ± SEM, minimum 6 replicates. On the procedure: (§1) Cells and virus culture: TZM-bl cells (42), HIV-1 IIIB virus (43-45) and HIV-1 IIIB (A17 variant) virus (46) as well are the NNRTI resistant mutants (strain NL4-3) (47) were obtained from the NIH HIV Reagent Program. H9 [derivative of HuT 78]cells (ATCC® HTB176™) were obtained from the American Type Culture Collection (Manassas, Virginia, United States of America). These viruses were grown in H9 cells to high titer, which was tested using a HIV p24 (high sensitivity) The detection kit used was sold under the tradename ALPHALISA® Detection Kit (PerkinElmer, Waltham, Massachusetts, United States of America). The viruses were concentrated using Lenti-X Concentrator (Takara Bio USA, Inc., Mountain View, California, United States of America). Infections of TZM-bl cells with either virus was facilitated with 15 μg/mL DEAE-dextran.
(§2) Compounds were serially diluted starting with 10 mM stocks in DMSO. DMSO concentrations were kept the same for all dilutions used within an assay (either 0.005% or 0.05% depending on highest concentration used). Duplicate 96-well plates were set up with 25 μL compound dilution, 25 μL virus, and 50 μL TZM-bl cells (2×10^5/mL) with DEAE-dextran and incubated at 37° C. 5% CO2 for 48 hr. All compounds were tested in triplicate, with single wells of efavirenz dilutions on each plate. All plates had 3-5 control wells without compound, 1 control well with no cells, and 1 control well with a highly toxic level of DMSO (9%). Inhibition assays were set up in clear tissue-culture treated plates with lysates moved to black assay plates or were set up in black tissue culture-treated plates. Medium was removed and the cells were lysed with Glo Lysis Buffer (Promega, Madison, Wisconsin, United States of America). Luciferase Assay System reagent (Promega, Madison, Wisconsin, United States of America) was added to cells and relative light units (RLU) was measured using an EnSpire instrument (PerkinElmer, Waltham, Massachusetts, United States of America). Toxicity assays were set up in clear tissue culture-treated plates. CellTiter-Blue Cell Viability Assay reagent (Promega) was added to the wells after 46 hr incubation, followed by 2 hr incubation. Sodium lauryl sulfate was added to 1.5% to stop the reaction and the plates were measured for fluorescence (560 nmEx/590 nmEm) using an EnSpire instrument (PerkinElmer, Waltham, Massachusetts, United States of America).

For the next data set, the system named is HIV-1 IIIB (wild-type). The data set can be described thus: HIV inhibition assay in TZM-bl cells, wild-type. As to conditions: Human immunodeficiency virus 1, IIIB, read-out: IC50 (TZM, WT). On the procedure:
as §1, §2

The subject of another data set is TZM-bl cells. The data set can be described thus: Toxicity assay in TZM-bl cells. On the procedure: as §2
Setting [2] is: Table 3, TZM-bl, ± SEM, minimum 6 replicates.

For the molecule `COc1ccc(Cl)cc1S(=O)(=O)n1nc(Nc2ccc(Cl)cc2)nc1N` [Compound 38, 1-(5-chloro-2-methoxy-phenyl)sulfonyl-N3-(4-chlorophenyl)-1,2,4-triazole-3,5-diamine], the IC50 in data set [1] is over 1 µM; in the data set with HIV-1 IIIB (wild-type) (setting [2]) it was 0.177 ± 0.0731 µM. Besides, in the data set on TZM-bl cells, the “Qualitative Cell Toxicity within inhibition range” value is “None”.
For `Cc1c(S(=O)(=O)n2nc(Nc3ccc(C#N)cc3)nc2N)sc2ccc(Cl)cc12` [Compound 48, 4-[[5-amino-1-(5-chloro-3-methyl-benzothiophen-2-yl)sulfonyl-1,2,4-triazol-3-yl]amino]benzonitrile], in that order: over 1 µM, 0.014 ± 0.00244 µM and “None”.
Take `CC(=O)Nc1nc(C)c(S(=O)(=O)n2nc(Nc3ccc(CC#N)cc3)nc2N)s1` [Compound 50, N-[5-[[5-amino-3-[4-(cyanomethyl)anilino]-1,2,4-triazol-1-yl]sulfonyl]-4-methyl-thiazol-2-yl]acetamide]: the IC50 was over 1 µM in data set [1] and 0.0194 ± 0.0038 µM in the data set on HIV-1 IIIB (wild-type) (setting [2]). Further, the “Qualitative Cell Toxicity within inhibition range” value with TZM-bl cells is “None”.
For the molecule `N#Cc1ccc(Nc2nc(N)n(S(=O)(=O)c3ccc4ccccc4c3)n2)cc1Cl` [Compound 3, 4-[[5-amino-1-(2-naphthylsulfonyl)-1,2,4-triazol-3-yl]amino]-2-chloro-benzonitrile], the results for the IC50 (in data set [1]; with HIV-1 IIIB (wild-type)) were 0.573 ± 0.13 µM and 0.00157 ± 0.00019 µM, respectively. The “Qualitative Cell Toxicity within inhibition range” value with TZM-bl cells (Table 3, TZM-bl) is listed as “None”.
For `Cc1nc(C)c(S(=O)(=O)n2nc(Nc3ccc(C#N)c(Cl)c3)nc2N)s1` [Compound 12, 4-[[5-amino-1-(2,4-dimethylthiazol-5-yl)sulfonyl-1,2,4-triazol-3-yl]amino]-2-chloro-benzonitrile], in that order: 0.306 ± 0.107 µM, 0.000879 ± 7.2e-05 µM and “None”.
`N#Cc1ccc(Nc2nc(N)n(S(=O)(=O)c3cccc(C#N)c3)n2)cc1` [Compound 9, 3-[[5-amino-3-(4-cyanoanilino)-1,2,4-triazol-1-yl]sulfonyl]benzonitrile]: the results for the IC50 (in data set [1]; with HIV-1 IIIB (wild-type) (setting [2])) were 0.709 ± 0.331 µM and 0.105 ± 0.0243 µM, respectively. Moreover, in the data set on TZM-bl cells, the “Qualitative Cell Toxicity within inhibition range” value was “None”.
For `N#Cc1ccc(Nc2nc(N)n(S(=O)(=O)c3c(Cl)nc4sccn34)n2)cc1C#N` [Compound 51, 4-[[5-amino-1-(6-chloroimidazo[2,1-b]thiazol-5-yl)sulfonyl-1,2,4-triazol-3-yl]amino]-phthalonitrile], in that order: over 1 µM, 0.000223 ± 5.5e-05 µM and “None”.
For `N#CCc1ccc(Nc2nc(N)n(S(=O)(=O)c3cnc(Cl)nc3)n2)cc1` [Compound 49, 2-[4-[[5-amino-1-(2-chloropyrimidin-5-yl)sulfonyl-1,2,4-triazol-3-yl]amino]phenyl]-acetonitrile], in that order: over 1 µM, 0.108 ± 0.0318 µM and “None”.
On to `N#Cc1ccc(Nc2nc(N)n(S(=O)(=O)c3c(Cl)nc4sccn34)n2)cc1Cl` [Compound 11, 4-[[5-amino-1-(6-chloroimidazo[2,1-b]thiazol-5-yl)sulfonyl-1,2,4-triazol-3-yl]amino]-2-chloro-benzonitrile], for which the IC50 in data set [1] stood at 0.175 ± 0.178 µM; in the data set with HIV-1 IIIB (wild-type) it was 0.00098 ± 0.000245 µM. In addition, the “Qualitative Cell Toxicity within inhibition range” value with TZM-bl cells (Table 3, TZM-bl) is on record as “Low”.
Consider `Cc1nc(C)c(S(=O)(=O)n2nc(Nc3ccc(Cl)cc3)nc2N)s1` [Compound 36, N3-(4-chlorophenyl)-1-(2,4-dimethylthiazol-5-yl)sulfonyl-1,2,4-triazole-3,5-diamine], for which the IC50 in data set [1] is over 1 µM; with HIV-1 IIIB (wild-type) (setting [2]), 0.0441 ± 0.0128 µM. Besides, the “Qualitative Cell Toxicity within inhibition range” value with TZM-bl cells is reported as “None”.
The corresponding values for `Cc1nc(-c2ccc(S(=O)(=O)n3nc(Nc4ccc(C#N)cc4)nc3N)s2)cs1` [Compound 52] are over 1 µM, 0.00214 ± 0.000812 µM and “None”.
